Measured values as given in patent US20060257411A1 (priority 2005, published 2006).
Read-outs that look alike come from different tables or passages of the source.

Legend:
peritoneal macrophages = format: cell-based, mouse
[1] = tested on: MyD88-independent pathway (TRIF-TRAM, IRF-3) in peritoneal macrophages; format: cell-based, mouse
[2] = tested on: vesicular stomatitis virus (VSV); format: cell-based; conditions: Heedless or Tlr4 Lps-d/Lps-d macrophages treated with interferon before infection (4 h)
[3] = macrophages from homozygous Heedless mice compared with wild-type, 4 h incubation

## Pam3CSK4
Peritoneal macrophages; [3]
  TNF production in response to inducer: normal

## poly IC
Peritoneal macrophages; [3]
  TNF production in response to inducer: normal

## Pam2CSK4
Peritoneal macrophages; [3]
  TNF production in response to inducer: partial impairment

## lipoteichoic acid
Peritoneal macrophages
  TNF production in response to inducer: partial impairment

## MALP-2
Peritoneal macrophages
  TNF production in response to inducer: partial impairment

## lipid A
Peritoneal macrophages
  TNF production in response to lipid A: perfectly able to produce TNF
[1]
  formation of the IRF-3 phosphodimer: not detected
  signaling via the MyD88-independent pathway (type I IFN production): prevented

B1: type I interferon: recombinant murine IFN-β from R&D systems used to pretreat macrophages (protein, UniProt P01575 22-182, looked up)
Interferon beta: INYKQLQLQERTNIRKCQELLEQLNGKINLTYRADFKIPMEMTEKMQKSYTAFAIQEMLQNVFLVFRNNFSSTGWNETIVVRLLDELHQQTVFLKTVLEEKQEERLTWEMSSTALHLKSYYWRVQRYLKLMKYNSYAWMVVRAEIFRNFLIIRRLTRNFQN
[2]
  lytic effect of VSV on macrophages: prevented
